Reference: publication PMC5218480 (PLoS ONE, 2017)

Test system: MV-4-11 cells
Assay: Gene expression microarray analysis (Affymetrix PrimeView) and GSEA
Assay type: cell-based, human
Design: RFU PODN (11730768_x_at) / Fold change /veh PODN (11730768_x_at) / RFU LINC00158 (11744669_a_at) / Fold change /veh LINC00158 (11744669_a_at) / RFU DUSP10 (11751237_a_at) / Fold change /veh DUSP10 (11751237_a_at) / RFU ID3 (11757404_x_at) / Fold change /veh ID3 (11757404_x_at) / RFU PLEKHG5 (11737974_s_at) / Fold change /veh PLEKHG5 (11737974_s_at) / RFU LRRC4B (11730491_at) / Fold change /veh LRRC4B (11730491_at) / RFU GIMAP4 (11747438_a_at) / Fold change /veh GIMAP4 (11747438_a_at) / RFU KRT8 (11758183_x_at) / Fold change /veh KRT8 (11758183_x_at) / RFU CNN1 (11734310_a_at) / Fold change /veh CNN1 (11734310_a_at) / RFU VPS37D (11726825_at) / Fold change /veh VPS37D (11726825_at) / RFU C10orf10 (11716522_x_at) / Fold change /veh C10orf10 (11716522_x_at) / RFU KIR2DL2 /// KIR2DL4 /// KIR2DL5A /// KIR2DL5B /// KIR2DS1 /// KIR2DS2 /// KIR2DS3 /// KIR2DS4 /// KIR3DL3 /// KIR3DL3 /// KIR3DS1 (11738374_at) / Fold change /veh KIR2DL2 /// KIR2DL4 /// KIR2DL5A /// KIR2DL5B /// KIR2DS1 /// KIR2DS2 /// KIR2DS3 /// KIR2DS4 /// KIR3DL3 /// KIR3DL3 /// KIR3DS1 (11738374_at) / RFU C1QL1 (11718748_at) / Fold change /veh C1QL1 (11718748_at) / RFU TMPRSS4 (11747572_a_at) / Fold change /veh TMPRSS4 (11747572_a_at) / RFU HAMP (11756126_x_at) / Fold change /veh HAMP (11756126_x_at) / RFU RNFT2 (11725882_a_at) / Fold change /veh RNFT2 (11725882_a_at) / RFU NR4A2 (11747474_a_at) / Fold change /veh NR4A2 (11747474_a_at) / RFU ABCC12 (11746883_a_at) / Fold change /veh ABCC12 (11746883_a_at) / RFU TMEM136 (11760407_x_at) / Fold change /veh TMEM136 (11760407_x_at) / RFU CLDN22 /// WWC2 (11732394_at) / Fold change /veh CLDN22 /// WWC2 (11732394_at) / RFU HLA-DPB1 (11760878_x_at) / Fold change /veh HLA-DPB1 (11760878_x_at) / RFU SPINT1 (11716480_a_at) / Fold change /veh SPINT1 (11716480_a_at) / RFU GAP43 (11754022_s_at) / Fold change /veh GAP43 (11754022_s_at) / RFU A4GNT (11735810_at) / Fold change /veh A4GNT (11735810_at) / RFU PRB3 (11715151_x_at) / Fold change /veh PRB3 (11715151_x_at) / RFU TUBB4B (11761932_at) / Fold change /veh TUBB4B (11761932_at) / RFU CAPN14 (11732068_a_at) / Fold change /veh CAPN14 (11732068_a_at) / RFU TMCC2 (11721928_a_at) / Fold change /veh TMCC2 (11721928_a_at) / RFU IRGQ (11745062_a_at) / Fold change /veh IRGQ (11745062_a_at) / RFU FAM174B (11720279_a_at) / Fold change /veh FAM174B (11720279_a_at) / RFU TMPRSS4 (11748680_a_at) / Fold change /veh TMPRSS4 (11748680_a_at) / RFU FAM212B (11763350_a_at) / Fold change /veh FAM212B (11763350_a_at) / RFU PLEKHG5 (11743358_a_at) / Fold change /veh PLEKHG5 (11743358_a_at) / RFU ZSCAN30 (11745921_a_at) / Fold change /veh ZSCAN30 (11745921_a_at) / RFU CMKLR1 (11741424_a_at) / Fold change /veh CMKLR1 (11741424_a_at) / RFU LOC101060620 /// MAPK8IP1 (11723275_at) / Fold change /veh LOC101060620 /// MAPK8IP1 (11723275_at) / RFU SPTSSB (11747773_x_at) / Fold change /veh SPTSSB (11747773_x_at) / RFU PRSS12 (11739890_at) / Fold change /veh PRSS12 (11739890_at) / RFU BIN1 (11741810_x_at) / Fold change /veh BIN1 (11741810_x_at) / RFU WNT11 (11732464_a_at) / Fold change /veh WNT11 (11732464_a_at) / RFU C10orf10 (11716521_a_at) / Fold change /veh C10orf10 (11716521_a_at) / RFU C5orf56 (11738089_at) / Fold change /veh C5orf56 (11738089_at) / RFU CYB561 (11721691_x_at) / Fold change /veh CYB561 (11721691_x_at) / RFU ANKRD19P (11752326_a_at) / Fold change /veh ANKRD19P (11752326_a_at) / RFU OR2T12 /// OR2T33 /// OR2T8 (11738714_s_at) / Fold change /veh OR2T12 /// OR2T33 /// OR2T8 (11738714_s_at) / RFU VCAN (11748164_a_at) / Fold change /veh VCAN (11748164_a_at) / RFU JSRP1 (11732532_at) / Fold change /veh JSRP1 (11732532_at) / RFU KRTAP10-11 (11738290_x_at) / Fold change /veh KRTAP10-11 (11738290_x_at) / RFU MYO3A (11730013_a_at) / Fold change /veh MYO3A (11730013_a_at) / RFU EBF3 (11725865_a_at) / Fold change /veh EBF3 (11725865_a_at) / RFU CAMK2N1 (11719241_x_at) / Fold change /veh CAMK2N1 (11719241_x_at) / RFU C5orf56 (11738088_a_at) / Fold change /veh C5orf56 (11738088_a_at) / RFU OLFML3 (11715873_a_at) / Fold change /veh OLFML3 (11715873_a_at) / RFU LOC100653217 /// NTM (11731650_a_at) / Fold change /veh LOC100653217 /// NTM (11731650_a_at) / RFU MAPK11 (11762145_a_at) / Fold change /veh MAPK11 (11762145_a_at) / RFU FIZ1 (11724087_x_at) / Fold change /veh FIZ1 (11724087_x_at) / RFU OASL (11726364_x_at) / Fold change /veh OASL (11726364_x_at) / RFU SOX15 (11748057_x_at) / Fold change /veh SOX15 (11748057_x_at) / RFU CD79A (11719716_a_at) / Fold change /veh CD79A (11719716_a_at) / RFU HIST1H1D (11736915_at) / Fold change /veh HIST1H1D (11736915_at) / RFU CASKIN2 (11723855_a_at) / Fold change /veh CASKIN2 (11723855_a_at) / RFU LOC730098 (11760151_x_at) / Fold change /veh LOC730098 (11760151_x_at) / RFU OR4N2 (11742367_at) / Fold change /veh OR4N2 (11742367_at) / RFU PRRT2 (11749266_a_at) / Fold change /veh PRRT2 (11749266_a_at) / RFU SNX32 (11753110_a_at) / Fold change /veh SNX32 (11753110_a_at) / RFU CDHR5 (11726645_a_at) / Fold change /veh CDHR5 (11726645_a_at) / RFU RCAN1 (11760418_a_at) / Fold change /veh RCAN1 (11760418_a_at) / RFU FAM167A (11723789_a_at) / Fold change /veh FAM167A (11723789_a_at) / RFU FAM26E (11764081_at) / Fold change /veh FAM26E (11764081_at) / RFU ISYNA1 (11749810_s_at) / Fold change /veh ISYNA1 (11749810_s_at) / RFU ACY1 (11761880_at) / Fold change /veh ACY1 (11761880_at) / RFU 11764098_at / Fold change /veh 11764098_at / RFU SAMD14 (11745864_x_at) / Fold change /veh SAMD14 (11745864_x_at) / RFU NPB (11741838_a_at) / Fold change /veh NPB (11741838_a_at) / RFU TMPRSS6 (11731388_a_at) / Fold change /veh TMPRSS6 (11731388_a_at) / RFU KRTAP10-2 (11738614_at) / Fold change /veh KRTAP10-2 (11738614_at) / RFU ARHGAP8 /// PRR5-ARHGAP8 (11727945_x_at) / Fold change /veh ARHGAP8 /// PRR5-ARHGAP8 (11727945_x_at) / RFU KRTAP5-7 /// NADSYN1 (11734609_at) / Fold change /veh KRTAP5-7 /// NADSYN1 (11734609_at) / RFU RASL12 (11751679_a_at) / Fold change /veh RASL12 (11751679_a_at) / RFU CDKN2B (11736163_a_at) / Fold change /veh CDKN2B (11736163_a_at) / RFU PRF1 (11729649_at) / Fold change /veh PRF1 (11729649_at) / RFU, ZNF638 /// ZNF638-IT1 / Fold change vs veh, ZNF638 /// ZNF638-IT1 / RFU, PANK3 / Fold change vs veh, PANK3 / RFU, SH3YL1 / Fold change vs veh, SH3YL1 / RFU, ZEB2 / Fold change vs veh, ZEB2 / RFU, NRIP1 / Fold change vs veh, NRIP1 / RFU, PTTG1IP / Fold change vs veh, PTTG1IP / RFU, CAPN2 / Fold change vs veh, CAPN2 / RFU, MED14 / Fold change vs veh, MED14 / RFU, SNORA58 / Fold change vs veh, SNORA58 / RFU, C1orf63 / Fold change vs veh, C1orf63 / RFU, LRRFIP1 / Fold change vs veh, LRRFIP1 / RFU, NDUFAF7 / Fold change vs veh, NDUFAF7 / RFU, SLC12A2 / Fold change vs veh, SLC12A2 / RFU, IBTK / Fold change vs veh, IBTK / RFU, ESF1 / Fold change vs veh, ESF1 / Fold change vs veh, TMEM50B / RFU, TAOK1 / Fold change vs veh, TAOK1 / RFU, ACBD3 / Fold change vs veh, ACBD3 / RFU, TMA16 / Fold change vs veh, TMA16 / RFU, RWDD3 / Fold change vs veh, RWDD3 / RFU, BCAT1 / Fold change vs veh, BCAT1 / RFU, EDEM3 / Fold change vs veh, EDEM3 / RFU, TMEM33 / Fold change vs veh, TMEM33 / RFU, WDR75 / Fold change vs veh, WDR75 / RFU, AHCTF1 / Fold change vs veh, AHCTF1 / RFU, TFRC / Fold change vs veh, TFRC / RFU, ZDHHC17 / Fold change vs veh, ZDHHC17 / RFU, NOM1 / Fold change vs veh, NOM1 / RFU, ARL8B / Fold change vs veh, ARL8B / RFU, ZBTB11 / Fold change vs veh, ZBTB11 / RFU, TAMM41 / Fold change vs veh, TAMM41 / RFU, KIAA1704 /// LOC100996395 / Fold change vs veh, KIAA1704 /// LOC100996395 / RFU, ING1 / Fold change vs veh, ING1 / RFU, TRMT61B / Fold change vs veh, TRMT61B / RFU, FUBP3 / Fold change vs veh, FUBP3 / RFU, TP53 / Fold change vs veh, TP53 / RFU, TNKS2 / Fold change vs veh, TNKS2 / RFU, ZFP14 / Fold change vs veh, ZFP14 / RFU, ACTR2 / Fold change vs veh, ACTR2 / RFU, PPP3R1 / Fold change vs veh, PPP3R1 / RFU, PIK3R1 / Fold change vs veh, PIK3R1 / RFU, HNRNPA1 / Fold change vs veh, HNRNPA1 / RFU, RNF170 / Fold change vs veh, RNF170 / RFU, ZNF28 / Fold change vs veh, ZNF28 / RFU, RNGTT / Fold change vs veh, RNGTT / RFU, OGT / Fold change vs veh, OGT / RFU, BRD1 / Fold change vs veh, BRD1 / RFU, MARS / Fold change vs veh, MARS / RFU, ZNF655 / Fold change vs veh, ZNF655 / RFU, FAHD1 / Fold change vs veh, FAHD1 / RFU, BDP1 / Fold change vs veh, BDP1 / RFU, LRRCC1 / Fold change vs veh, LRRCC1 / RFU, ARID1A / Fold change vs veh, ARID1A / RFU, ZNF146 / Fold change vs veh, ZNF146 / RFU, ZNF330 / Fold change vs veh, ZNF330 / RFU, GPN3 / Fold change vs veh, GPN3 / RFU, C9orf123 / Fold change vs veh, C9orf123 / RFU, N4BP2L2 / Fold change vs veh, N4BP2L2 / RFU, ARFIP1 / Fold change vs veh, ARFIP1 / RFU, FAM179B / Fold change vs veh, FAM179B / RFU, BCL10 / Fold change vs veh, BCL10 / RFU, UHRF1BP1L / Fold change vs veh, UHRF1BP1L / RFU, BET1 / Fold change vs veh, BET1 / RFU, CNOT2 / Fold change vs veh, CNOT2 / RFU, ZNF268 / Fold change vs veh, ZNF268 / Fold change vs veh, ZNF507 / RFU, DGCR2 / Fold change vs veh, DGCR2 / RFU, WDSUB1 / Fold change vs veh, WDSUB1 / Fold change vs veh, HSP90B1 /// MIR3652 / RFU, ADSS / Fold change vs veh, ADSS / RFU, GK / Fold change vs veh, GK / RFU, ZNF148 / Fold change vs veh, ZNF148 / RFU, TAF9 / Fold change vs veh, TAF9 / RFU, SLC1A5 / Fold change vs veh, SLC1A5 / RFU, SLMO2 / Fold change vs veh, SLMO2 / RFU, ABCC4 / Fold change vs veh, ABCC4 / RFU, LOC101060439 /// RAP1B / Fold change vs veh, LOC101060439 /// RAP1B / RFU, RFX7 / Fold change vs veh, RFX7 / RFU, GTPBP10 / Fold change vs veh, GTPBP10 / RFU, CNEP1R1 / Fold change vs veh, CNEP1R1 / RFU, BIVM-ERCC5 /// ERCC5 / Fold change vs veh, BIVM-ERCC5 /// ERCC5 / RFU, ILF3 / Fold change vs veh, ILF3 / RFU 11762660_at / Fold change /veh 11762660_at / RFU VCAN (11757783_s_at) / Fold change /veh VCAN (11757783_s_at) / RFU DDX43 (11728927_at) / Fold change /veh DDX43 (11728927_at) / RFU KRT8 (11758188_x_at) / Fold change /veh KRT8 (11758188_x_at) / RFU NKD1 (11759106_at) / Fold change /veh NKD1 (11759106_at) / RFU SRD5A1 (11742802_a_at) / Fold change /veh SRD5A1 (11742802_a_at) / RFU TPSAB1 /// TPSB2 (11721975_s_at) / Fold change /veh TPSAB1 /// TPSB2 (11721975_s_at) / RFU GSTM3 (11746129_a_at) / Fold change /veh GSTM3 (11746129_a_at) / RFU IL23R (11737362_x_at) / Fold change /veh IL23R (11737362_x_at) / RFU TMEM51 (11727254_a_at) / Fold change /veh TMEM51 (11727254_a_at) / RFU PIWIL2 (11732686_x_at) / Fold change /veh PIWIL2 (11732686_x_at) / RFU ORM1 (11744905_x_at) / Fold change /veh ORM1 (11744905_x_at) / RFU CCDC152 (11743942_at) / Fold change /veh CCDC152 (11743942_at) / RFU ECM1 (11717891_a_at) / Fold change /veh ECM1 (11717891_a_at) / RFU IL23R (11748794_a_at) / Fold change /veh IL23R (11748794_a_at) / RFU TNFAIP8L3 (11732012_x_at) / Fold change /veh TNFAIP8L3 (11732012_x_at) / RFU MBOAT4 (11741988_at) / Fold change /veh MBOAT4 (11741988_at) / RFU 11764193_at / Fold change /veh 11764193_at / RFU TMEM53 (11763286_at) / Fold change /veh TMEM53 (11763286_at) / RFU MAGEB2 (11727129_at) / Fold change /veh MAGEB2 (11727129_at) / RFU TMEM200A (11744735_a_at) / Fold change /veh TMEM200A (11744735_a_at) / RFU CCDC152 (11751479_a_at) / Fold change /veh CCDC152 (11751479_a_at) / RFU FAM211A (11726209_a_at) / Fold change /veh FAM211A (11726209_a_at) / RFU RGS16 (11746705_a_at) / Fold change /veh RGS16 (11746705_a_at) / RFU VCAN (11755009_s_at) / Fold change /veh VCAN (11755009_s_at) / RFU RHOB (11743442_s_at) / Fold change /veh RHOB (11743442_s_at) / RFU RGS16 (11720943_a_at) / Fold change /veh RGS16 (11720943_a_at) / RFU RGS16 (11720944_at) / Fold change /veh RGS16 (11720944_at) / RFU, VPS4B / Fold change vs veh, VPS4B / RFU, CREB1 / Fold change vs veh, CREB1 / RFU, DNAJC13 / Fold change vs veh, DNAJC13 / RFU, GNAQ / Fold change vs veh, GNAQ / RFU, CDK5R1 / Fold change vs veh, CDK5R1 / RFU, ZRANB3 / Fold change vs veh, ZRANB3 / RFU, CUL4A / Fold change vs veh, CUL4A / RFU, CCNY / Fold change vs veh, CCNY / RFU, UFL1 / Fold change vs veh, UFL1 / RFU, COG3 / Fold change vs veh, COG3 / RFU, DIAPH2 / Fold change vs veh, DIAPH2 / RFU, SKA2 / Fold change vs veh, SKA2 / RFU, AFF3 / Fold change vs veh, AFF3 / RFU, LMF1 / Fold change vs veh, LMF1 / RFU, IPO11 / Fold change vs veh, IPO11 / RFU, DFFB / Fold change vs veh, DFFB / RFU, FOXP1 / Fold change vs veh, FOXP1 / RFU, CARD8 / Fold change vs veh, CARD8 / RFU, STRN3 / Fold change vs veh, STRN3 / RFU, ADK / Fold change vs veh, ADK / RFU, RASSF2 / Fold change vs veh, RASSF2 / RFU, WIPF1 / Fold change vs veh, WIPF1 / RFU, LARP1B / Fold change vs veh, LARP1B / RFU, RASA1 / Fold change vs veh, RASA1 / RFU, RB1 / Fold change vs veh, RB1 / RFU, PPFIA1 / Fold change vs veh, PPFIA1 / RFU, MAT2A / Fold change vs veh, MAT2A / RFU, CCT5 / Fold change vs veh, CCT5 / RFU, WDR92 / Fold change vs veh, WDR92 / RFU, CUX1 / Fold change vs veh, CUX1 / RFU, TTC7A / Fold change vs veh, TTC7A / RFU, TMEM135 / Fold change vs veh, TMEM135 / RFU, DEPTOR / Fold change vs veh, DEPTOR / RFU, CPM / Fold change vs veh, CPM / RFU, DNAJB6 / Fold change vs veh, DNAJB6 / RFU, CACNA2D3 / Fold change vs veh, CACNA2D3 / RFU, DTX4 / Fold change vs veh, DTX4 / RFU, TFCP2 / Fold change vs veh, TFCP2 / RFU, GMCL1 /// GMCL1P1 / Fold change vs veh, GMCL1 /// GMCL1P1 / RFU, AEBP2 / Fold change vs veh, AEBP2 / RFU, SNHG1 /// SNORD22 /// SNORD25 /// SNORD26 /// SNORD27 /// SNORD28 /// SNORD29 /// SNORD31 / Fold change vs veh, SNHG1 /// SNORD22 /// SNORD25 /// SNORD26 /// SNORD27 /// SNORD28 /// SNORD29 /// SNORD31 / Fold change (Aza/veh), C12orf56 (ProbeSet 11735607_a_at) / Fold change (ACY-1035/veh), C12orf56 (ProbeSet 11735607_a_at) / Fold change (Aza/veh), FGFR1OP (ProbeSet 11751329_s_at) / Fold change (ACY-1035/veh), FGFR1OP (ProbeSet 11751329_s_at) / Fold change (Aza/veh), VPS36 (ProbeSet 11739960_a_at) / Fold change (ACY-1035/veh), VPS36 (ProbeSet 11739960_a_at) / RFU SYPL1 (11715823_x_at) / Fold change /veh SYPL1 (11715823_x_at) / RFU IGFBP7 (11715501_s_at) / Fold change /veh IGFBP7 (11715501_s_at) / RFU REEP3 (11722064_at) / Fold change /veh REEP3 (11722064_at) / RFU IGLL1 (11728026_x_at) / Fold change /veh IGLL1 (11728026_x_at): dose or concentration left out as unconfirmed
Conditions: ProbeSet 11757113_a_at; LIST D

Nc1ncn([C@@H]2O[C@H](CO)[C@@H](O)[C@H]2O)c(=O)n1 [azacitidine]
RFU, SNHG1 /// SNORD22 /// SNORD25 /// SNORD26 /// SNORD27 /// SNORD28 /// SNORD29 /// SNORD31: 298.12 RFU
